These results are taken from PMC8812735, “Discovery of triterpenoids as potent dual inhibitors of pancreatic lipase and human carboxylesterase 1” (Journal of Enzyme Inhibition and Medicinal Chemistry, 2022).

Structures are written as SMILES.

For one series, the system named is 3T3-L1 cells. The experiment in a line: Cytotoxicity assay (CCK-8) in 3T3-L1 cells. In kind it is cell-based. Particulars: CCK-8, 48 h, 0–100 µM. On the procedure:
The effect of compounds 39 and 41 on cell viability of the 3T3-L1cells was measured using Cell Counting Kit-8 (Dalian Meilun Biotechnology Co., Ltd., Dalian, China). Briefly, 3T3-L1 cells (5 × 10^4/mL, 100 µL) were seeded in the 96-well plate, After 24 h incubation, then the cells were treated with different concentrations of compounds 39 and 41 (0–100 µM) for another 48 h. Then, CCK-8 (10%, v/v, 100 µL) was added to each well and incubated at 37 °C for additional 2 h. The absorbance was determined by microplate reader at 450 nm. The percentage of cell viability was calculated towards control. Each condition included replicate wells with at least four independent repeats.

Another series has as its target T1, Pancreatic lipase (PL) (Sus scrofa, UniProt P00591).
T1 construct: purchased Sigma Aldrich type II, Lot.SLBN9099V
T1 sequence (P00591 1-450): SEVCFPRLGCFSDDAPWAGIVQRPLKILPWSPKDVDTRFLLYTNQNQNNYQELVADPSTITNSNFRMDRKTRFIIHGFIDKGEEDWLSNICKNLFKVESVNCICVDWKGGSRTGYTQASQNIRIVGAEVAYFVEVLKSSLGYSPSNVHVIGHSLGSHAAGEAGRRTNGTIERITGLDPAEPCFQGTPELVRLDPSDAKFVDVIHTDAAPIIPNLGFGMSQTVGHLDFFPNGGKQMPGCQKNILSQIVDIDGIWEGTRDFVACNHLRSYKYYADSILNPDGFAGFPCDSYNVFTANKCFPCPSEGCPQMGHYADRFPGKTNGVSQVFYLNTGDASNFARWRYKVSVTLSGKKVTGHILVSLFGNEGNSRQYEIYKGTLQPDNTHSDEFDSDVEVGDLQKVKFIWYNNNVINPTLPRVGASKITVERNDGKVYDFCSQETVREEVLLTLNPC
The experiment in a line: Inhibition of PL-mediated 4-MUO hydrolysis. In kind it is biochemical. The following applies: for Inhibition mode PL / Ki / IC50: 4-MUO substrate; for Ki: Lineweaver–Burk second plot; for IC50: mean ± SD (n = 3); for Reversibility of PL inhibition: dose-response curves not affected by pre-incubation times. How it is done:
In addition, the background fluorescence in the absence of an enzyme source (PL) (add the same amount of citrate-Na2HPO4 buffer) was measured. […] Then start the reaction by adding 2 µL of 4-MUO probe (3 µM, final concentration). The fluorescence signal of 4-MU (hydrolytic metabolite) was detected by multi-mode microplate reader (SpectraMax M4, Molecular Devices, Urstein, Austria) with continuous oscillation for 20 min and recorded and analysed at 60 s intervals. The excitation wavelength and emission wavelength of 4-MU were set at 340 nm and 460 nm, respectively, and the gain value was 500.
Subsequently, various concentrations of substrates (selected according to Km) and different concentrations of inhibitors were used to determine the corresponding reaction rate, and the second slope graph of the Lineweaver–Burk diagram was used as a function of the inhibitor to calculate the corresponding inhibition constant (Ki) value. All kinetic data were fitted by the following kinetic equations (a–c), for competitive (a), non-competitive (b) and mixed inhibition (c): (a) V=(VmaxS)/[Km(1+I/Ki)+S] (b) V=(VmaxS)/[(Km+S)×(1+I/Ki)] (c) V=(VmaxS)/[(Km+S)×(1+I/αKi)] where V is the hydrolytic velocity of the reaction, Vmax is the maximum velocity. S and I are substrate (4-MUO, NLMe) and inhibitor (compound 39/41) concentrations, respectively. Ki is the inhibition constant of the tested inhibitor against the target PL and hCES1A; Km is the Michaelis constant (the substrate concentration at half of the Vmax).
All measurements were made in triplicate and the data obtained in the experiment were shown as mean ± SD.

Series [1] addresses dipeptidyl peptidase-IV (DPP-IV) (Homo sapiens, UniProt P27487). The experiment in a line: Inhibition of DPP-IV-mediated GP-BAN hydrolysis. In kind it is biochemical. The following applies: substrate: GP-BAN. On the procedure: The details for DPP-IV inhibition has been reported previously[49]^,[50]. The fluorescent signal of the hydrolytic product (BAN) was measured by a fluorescence microplate reader at an excitation wavelength of 430 nm, an emission wavelength of 535 nm (gain = 500).

In series [2] the target is T2, Butyrylcholinesterase (BuChE) (Homo sapiens, UniProt P06276).
T2 construct: from tissue; host or cells: human serum
T2 sequence (P06276 29-602): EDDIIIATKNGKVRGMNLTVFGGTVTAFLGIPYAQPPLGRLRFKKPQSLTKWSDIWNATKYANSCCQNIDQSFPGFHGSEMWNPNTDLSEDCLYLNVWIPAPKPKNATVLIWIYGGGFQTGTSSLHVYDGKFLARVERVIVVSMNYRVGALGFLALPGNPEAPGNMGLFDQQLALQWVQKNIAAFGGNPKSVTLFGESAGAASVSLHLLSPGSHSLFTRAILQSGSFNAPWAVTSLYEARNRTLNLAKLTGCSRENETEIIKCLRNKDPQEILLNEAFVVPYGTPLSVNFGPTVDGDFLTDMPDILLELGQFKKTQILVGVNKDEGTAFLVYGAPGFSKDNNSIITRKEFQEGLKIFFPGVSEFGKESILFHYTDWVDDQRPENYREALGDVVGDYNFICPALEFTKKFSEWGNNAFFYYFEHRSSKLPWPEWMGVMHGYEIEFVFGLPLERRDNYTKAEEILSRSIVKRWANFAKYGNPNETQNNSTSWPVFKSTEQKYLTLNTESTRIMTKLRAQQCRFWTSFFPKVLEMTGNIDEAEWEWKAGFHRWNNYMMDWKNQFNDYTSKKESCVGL
The experiment in a line: Inhibition of BuChE-mediated BTCH hydrolysis. In kind it is biochemical. On the procedure:
To assay the inhibitory effects of triterpenoids on Butyrylcholinesterase (BuChE), butyrylthiocholine (BTCH) was used as a substrate for BuChE, The total volume of the system was 100 µL. Including 2 µL DMSO/inhibitor, 2 µL human serum, 84 µL buffered PBS (pH 7.4, 0.1 M), 10 µL substrate iodised butyrylthiocholine (0.3 mM, final concentration) and 2 µL developer 5–5′-dithiobis(2-nitrobenzoic acid) (DTNB) (1 mM, final concentration). The assay protocol of […] was depicted previously. All measurements were performed in triplicates.

Chain of dipeptidyl peptidase-IV (DPP-IV) (P27487 whole entry): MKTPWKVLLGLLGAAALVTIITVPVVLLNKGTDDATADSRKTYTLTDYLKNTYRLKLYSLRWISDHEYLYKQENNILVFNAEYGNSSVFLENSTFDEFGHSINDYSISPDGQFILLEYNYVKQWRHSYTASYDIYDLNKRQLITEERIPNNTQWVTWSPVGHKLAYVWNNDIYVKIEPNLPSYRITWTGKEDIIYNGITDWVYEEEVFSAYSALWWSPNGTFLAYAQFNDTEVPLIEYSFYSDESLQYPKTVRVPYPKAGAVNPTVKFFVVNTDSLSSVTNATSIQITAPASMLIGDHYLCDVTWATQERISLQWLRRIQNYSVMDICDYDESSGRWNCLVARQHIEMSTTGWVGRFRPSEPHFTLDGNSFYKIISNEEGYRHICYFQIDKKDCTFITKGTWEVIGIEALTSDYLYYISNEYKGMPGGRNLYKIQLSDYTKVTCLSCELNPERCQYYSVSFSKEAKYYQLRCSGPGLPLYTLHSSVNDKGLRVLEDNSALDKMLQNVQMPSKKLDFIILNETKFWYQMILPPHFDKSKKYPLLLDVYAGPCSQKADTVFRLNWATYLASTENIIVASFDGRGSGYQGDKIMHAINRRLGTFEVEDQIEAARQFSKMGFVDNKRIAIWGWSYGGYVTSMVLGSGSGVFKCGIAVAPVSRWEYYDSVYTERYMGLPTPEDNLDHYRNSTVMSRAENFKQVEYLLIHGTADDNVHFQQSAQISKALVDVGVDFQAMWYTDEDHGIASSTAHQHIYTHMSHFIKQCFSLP

Regarding `CC1(C)CCC2(C(=O)O)CCC3(C)C(=CCC4C5(C)C=C(O)C(=O)C(C)(C)C5CCC43C)C2C1` (centres unmarked) [Compound 39], the “concentration below which almost non-toxic to 3T3-L1 (cell viability)” value with 3T3-L1 cells is “below 20 µM”. Besides, on Pancreatic lipase (PL), the “Inhibition mode PL” value is reported as “Mixed”, the Ki stood at 1.45 µM, the IC50 was 2.13 ± 0.19 µM and the “Reversibility of PL inhibition” value is “reversible inhibitors”. In series [1], this compound displayed an IC50 above 100 µM. In series [2], this compound gave an IC50 above 100 µM.

As for `CC(=O)OC1CCC2(C)C(CCC3(C)C2CC=C2C4C(C)C(C)CCC4(C(=O)O)CCC23C)C1(C)C` (centres unmarked) [Compound 41], the “concentration below which almost non-toxic to 3T3-L1 (cell viability)” value in the series on 3T3-L1 cells is listed as below 10 µM. At Pancreatic lipase (PL), the “Inhibition mode PL” value was “Mixed”, the Ki is 0.58 µM, the 50% inhibitory concentration (IC50) stood at 0.75 ± 0.12 µM and the “Reversibility of PL inhibition” value is reported as “reversible inhibitors”. This compound also returned an IC50 in series [1] above 100 µM. The compound further gave an IC50 in series [2] above 100 µM.

One may read the Ki as the dissociation constant of the complex between target and ligand, obtained from inhibition or displacement. Low readings indicate a stronger hold on the target, high ones a looser hold on the target. In general, IC50 refers to the point on the concentration scale where inhibition reaches its midpoint.
